# Assay results reported in patent publication US9896440B2, “Aryl substituted heterocyclyl sulfones” (GRÜNENTHAL GMBH, priority 2014, dated 2018).
# Target: T1, Human CaV2.2 channels (Homo sapiens, UniProt Q00975)
# T1 construct: expressed in transfected cells; Kir2.3 also stably co-expressed
# Experiment: Fluorescence assay for CaV2.2 channels using potassium depolarization to induce channel opening (FLIPR, Fluo 4)
# Type: cell-based
# Conditions: 3 μM test compound, 30 mM KCl assay buffer (inactivated channel state), HEK293 cells
# How it was run: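 HEK293 cells stably co-expressing human CaV2.2 with α2δ and β subunits plus Kir2.3, Fluo-4 loaded; compounds preincubated 15 min at 25 °C in 1 mM or 30 mM KCl buffer (inactivated state), pH 7.4. Depolarized by KCl addition; baseline-normalized peak fluorescence (ex 480/em 535 nm) gave inhibition.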
# T1 sequence (Q00975 whole entry): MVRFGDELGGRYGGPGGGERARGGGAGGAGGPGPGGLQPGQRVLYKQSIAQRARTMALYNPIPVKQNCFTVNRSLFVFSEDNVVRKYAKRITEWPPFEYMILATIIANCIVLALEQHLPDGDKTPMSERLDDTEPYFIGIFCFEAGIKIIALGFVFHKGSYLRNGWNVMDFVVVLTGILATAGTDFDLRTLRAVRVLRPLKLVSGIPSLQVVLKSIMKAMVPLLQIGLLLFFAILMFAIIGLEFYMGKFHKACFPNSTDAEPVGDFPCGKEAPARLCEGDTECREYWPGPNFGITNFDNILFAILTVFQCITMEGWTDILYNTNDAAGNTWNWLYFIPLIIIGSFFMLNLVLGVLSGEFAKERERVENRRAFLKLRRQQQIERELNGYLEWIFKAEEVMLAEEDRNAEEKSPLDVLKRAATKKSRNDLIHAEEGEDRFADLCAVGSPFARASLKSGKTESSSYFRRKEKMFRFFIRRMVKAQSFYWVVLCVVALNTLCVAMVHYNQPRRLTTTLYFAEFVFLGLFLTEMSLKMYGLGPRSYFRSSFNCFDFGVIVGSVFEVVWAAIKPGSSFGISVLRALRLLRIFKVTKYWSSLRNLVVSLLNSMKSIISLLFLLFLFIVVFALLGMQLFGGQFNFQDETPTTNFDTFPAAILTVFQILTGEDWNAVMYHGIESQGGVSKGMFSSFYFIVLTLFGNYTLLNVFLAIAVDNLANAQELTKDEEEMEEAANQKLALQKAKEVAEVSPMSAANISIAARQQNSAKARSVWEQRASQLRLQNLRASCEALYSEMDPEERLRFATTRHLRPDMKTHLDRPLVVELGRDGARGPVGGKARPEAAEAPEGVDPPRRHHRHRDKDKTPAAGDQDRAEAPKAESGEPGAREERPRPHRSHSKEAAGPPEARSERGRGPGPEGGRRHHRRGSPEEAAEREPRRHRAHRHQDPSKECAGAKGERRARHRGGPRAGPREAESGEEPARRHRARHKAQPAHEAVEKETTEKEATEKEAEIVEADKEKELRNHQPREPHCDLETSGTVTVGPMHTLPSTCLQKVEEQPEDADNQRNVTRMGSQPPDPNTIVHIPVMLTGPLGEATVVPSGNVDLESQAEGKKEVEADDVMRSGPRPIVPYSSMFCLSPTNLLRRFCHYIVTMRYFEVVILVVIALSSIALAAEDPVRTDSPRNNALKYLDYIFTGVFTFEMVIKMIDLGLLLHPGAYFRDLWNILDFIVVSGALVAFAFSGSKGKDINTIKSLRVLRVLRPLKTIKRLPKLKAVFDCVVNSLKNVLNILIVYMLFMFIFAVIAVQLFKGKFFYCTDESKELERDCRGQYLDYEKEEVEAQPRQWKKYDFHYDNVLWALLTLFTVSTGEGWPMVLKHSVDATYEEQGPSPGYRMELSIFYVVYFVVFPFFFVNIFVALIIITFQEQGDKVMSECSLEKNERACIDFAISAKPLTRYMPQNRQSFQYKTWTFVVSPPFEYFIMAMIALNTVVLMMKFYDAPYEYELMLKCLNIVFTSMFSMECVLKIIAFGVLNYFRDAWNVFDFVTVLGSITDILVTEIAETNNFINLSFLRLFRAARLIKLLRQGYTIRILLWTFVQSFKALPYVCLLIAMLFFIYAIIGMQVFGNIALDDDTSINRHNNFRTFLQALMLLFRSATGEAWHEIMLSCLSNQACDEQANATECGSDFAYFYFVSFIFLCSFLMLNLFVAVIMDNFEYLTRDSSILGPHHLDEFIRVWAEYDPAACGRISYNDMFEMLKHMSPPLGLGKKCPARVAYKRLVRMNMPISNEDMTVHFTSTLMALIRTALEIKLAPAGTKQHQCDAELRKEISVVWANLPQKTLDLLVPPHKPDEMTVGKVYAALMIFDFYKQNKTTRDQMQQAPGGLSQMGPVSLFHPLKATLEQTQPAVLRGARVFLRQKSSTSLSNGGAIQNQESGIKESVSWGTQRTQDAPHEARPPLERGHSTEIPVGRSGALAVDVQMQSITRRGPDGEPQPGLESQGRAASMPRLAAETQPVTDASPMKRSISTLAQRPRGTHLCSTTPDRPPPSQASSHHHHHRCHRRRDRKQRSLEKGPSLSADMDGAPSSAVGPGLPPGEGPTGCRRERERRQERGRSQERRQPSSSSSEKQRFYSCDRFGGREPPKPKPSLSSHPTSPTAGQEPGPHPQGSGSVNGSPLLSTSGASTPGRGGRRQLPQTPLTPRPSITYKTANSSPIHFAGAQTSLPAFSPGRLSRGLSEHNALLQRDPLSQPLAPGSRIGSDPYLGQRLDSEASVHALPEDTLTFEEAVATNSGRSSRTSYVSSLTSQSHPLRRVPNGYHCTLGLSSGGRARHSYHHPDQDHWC
row,Compound,Activity Category: %-Inhib (CaV2.2) @3 μM @30 mM KCl
1,"CC1(S(=O)(=O)c2cccc(C(F)(F)F)c2)CCOC(c2ccccc2S(C)(=O)=O)C1 (centres unmarked) [SC-223, 4-Methyl-2-(2-methylsulfonyl-phenyl)-4-[[3-(trifluoromethyl)phenyl]sulfonyl]-tetrahydro-pyran]",C (%-Inhibition >40% up to ≦75%)
2,"Cc1cc(Cl)ccc1C1CC(C)(S(=O)(=O)c2cccc(C(F)(F)F)c2)CCO1 (centres unmarked) [SC-225, 2-(4-Chloro-2-methyl-phenyl)-4-methyl-4-[[3-(trifluoromethyl)phenyl]sulfonyl]-tetrahydro-pyran]",A (%-Inhibition >95%)
3,"CCC1(S(=O)(=O)c2cccc(C(F)(F)F)c2)CCOC(c2ccc(Cl)cc2)C1 (centres unmarked) [SC-231, 2-(4-Chlorophenyl)-4-ethyl-4-[[3-(trifluoromethyl)phenyl]sulfonyl]-tetrahydro-pyran]",B (%-Inhibition >75% up to ≦95%)
4,"CC1(S(=O)(=O)c2cccc(C(F)(F)F)c2)CCOC(c2ccc(C#N)cc2S(C)(=O)=O)C1 (centres unmarked) [SC-252, 3-Methylsulfonyl-4-[4-methyl-4-[[3-(trifluoromethyl)phenyl]sulfonyl]-tetrahydro-pyran-2-yl]-benzonitrile]",B (%-Inhibition >75% up to ≦95%)
5,"Cc1cc(S(C)(=O)=O)ccc1C1CC(C)(S(=O)(=O)c2cccc(C(F)(F)F)c2)CCO1 (centres unmarked) [SC-254, 4-Methyl-2-(2-methyl-4-methylsulfonyl-phenyl)-4-[[3-(trifluoromethyl)phenyl]sulfonyl]-tetrahydro-pyran]",A (%-Inhibition >95%)
6,"CC1(S(=O)(=O)c2cccc(C(F)(F)F)c2)CCOC(c2ccc(C#N)c(S(C)(=O)=O)c2)C1 (centres unmarked) [SC-262, 2-Methylsulfonyl-4-[4-methyl-4-[[3-(trifluoromethyl)phenyl]sulfonyl]-tetrahydro-pyran-2-yl]-benzonitrile]",B (%-Inhibition >75% up to ≦95%)
7,"CC1(S(=O)(=O)c2cccc(OC(F)(F)F)c2)CCOC(c2ccc(S(C)(=O)=O)c(F)c2)C1 (centres unmarked) [SC-266, 2-(3-Fluoro-4-methylsulfonyl-phenyl)-4-methyl-4-[[3-(trifluoromethyloxy)-phenyl]sulfonyl]-tetrahydro-pyran]",A (%-Inhibition >95%)
8,"CC1(S(=O)(=O)c2cccc(C(F)(F)F)c2)CCOC(c2ccc(S(C)(=O)=O)c(C#N)c2)C1 (centres unmarked) [SC-268, 2-Methylsulfonyl-5-[4-methyl-4-[[3-(trifluoromethyl)phenyl]sulfonyl]-tetrahydro-pyran-2-yl]-benzonitrile]",B (%-Inhibition >75% up to ≦95%)
9,"CC1(S(=O)(=O)c2cccc(C(F)F)c2)CCOC(c2ccc(S(C)(=O)=O)c(F)c2)C1 (centres unmarked) [SC-269, 4-[[3-(Difluoro-methyl)-phenyl]sulfonyl]-2-(3-fluoro-4-methylsulfonyl-phenyl)-4-methyl-tetrahydro-pyran]",C (%-Inhibition >40% up to ≦75%)
10,"CC1(S(=O)(=O)c2cccc(C(F)F)c2)CCOC(c2ccc(S(C)(=O)=O)c(F)c2)C1 (centres unmarked) [SC-270, 4-[[3-(Difluoro-methyl)-phenyl]sulfonyl]-2-(3-fluoro-4-methylsulfonyl-phenyl)-4-methyl-tetrahydro-pyran]",B (%-Inhibition >75% up to ≦95%)

# Same assay, conditions: HEK293, 3 μM test compound, 30 mM KCl assay buffer (inactivated channel state), HEK293 cells; read-out: Activity Category: %-Inhib (CaV2.2) @3 μM @30 mM KCl
row,Compound,inhibition at 3 µM [%]
1,"Cc1cc(Cl)ccc1C1CC(C)(S(=O)(=O)c2cccc(C(F)(F)F)c2)CCO1 (centres unmarked) [SC-224, 2-(4-Chloro-2-methyl-phenyl)-4-methyl-4-[[3-(trifluoromethyl)phenyl]sulfonyl]-tetrahydro-pyran]",75 to 95
2,"COc1cc(C2CC(C)(S(=O)(=O)c3cccc(C(F)(F)F)c3)CCO2)ccc1Cl (centres unmarked) [SC-226, 2-(4-Chloro-3-methoxy-phenyl)-4-methyl-4-[[3-(trifluoromethyl)phenyl]sulfonyl]-tetrahydro-pyran]",> 95
3,"CC1(S(=O)(=O)c2cccc(C(F)(F)F)c2)CCOC(c2ccc(F)c(Cl)c2)C1 (centres unmarked) [SC-228, 2-(3-Chloro-4-fluoro-phenyl)-4-methyl-4-[[3-(trifluoromethyl)phenyl]sulfonyl]-tetrahydro-pyran]",> 95
4,"CCC1(S(=O)(=O)c2cccc(C(F)(F)F)c2)CCOC(c2ccc(Cl)cc2)C1 (centres unmarked) [SC-230, 2-(4-Chlorophenyl)-4-ethyl-4-[[3-(trifluoromethyl)phenyl]sulfonyl]-tetrahydro-pyran]",> 95
5,"CC1(S(=O)(=O)c2cccc(C(F)(F)F)c2)CCOC(c2ccc(C(F)(F)F)cc2S(C)(=O)=O)C1 (centres unmarked) [SC-232, 4-Methyl-2-[2-methylsulfonyl-4-(trifluoromethyl)-phenyl]-4-[[3-(trifluoromethyl)phenyl]sulfonyl]-tetrahydro-pyran]",> 95
6,"CC1(S(=O)(=O)c2cccc(C(F)(F)F)c2)CCOC(c2ccc(S(C)(=O)=O)c(C(F)(F)F)c2)C1 (centres unmarked) [SC-235, 4-Methyl-2-[4-methylsulfonyl-3-(trifluoromethyl)-phenyl]-4-[[3-(trifluoromethyl)phenyl]sulfonyl]-tetrahydro-pyran]",> 95
7,"CC1(S(=O)(=O)c2cccc(C(F)(F)F)c2)CCOC(c2ccc(Cl)c(S(C)(=O)=O)c2)C1 (centres unmarked) [SC-237, 2-(4-Chloro-3-methylsulfonyl-phenyl)-4-methyl-4-[[3-(trifluoromethyl)phenyl]sulfonyl]-tetrahydro-pyran]",> 95
8,"CC1(S(=O)(=O)c2cccc(C(F)(F)F)c2)CCOC(c2ccc(S(C)(=O)=O)c(Cl)c2)C1 (centres unmarked) [SC-239, 2-(3-Chloro-4-methylsulfonyl-phenyl)-4-methyl-4-[[3-(trifluoromethyl)phenyl]sulfonyl]-tetrahydro-pyran]",> 95
9,"CC1(S(=O)(=O)c2cccc(C(F)(F)F)c2)CCOC(c2ccc(S(C)(=O)=O)cc2F)C1 (centres unmarked) [SC-241, 2-(2-Fluoro-4-methylsulfonyl-phenyl)-4-methyl-4-[[3-(trifluoromethyl)phenyl]sulfonyl]-tetrahydro-pyran]",> 95
10,"CC1(S(=O)(=O)c2cccc(C(F)(F)F)c2)CCOC(c2cc(Cl)cc(S(C)(=O)=O)c2)C1 (centres unmarked) [SC-243, 2-(3-Chloro-5-methylsulfonyl-phenyl)-4-methyl-4-[[3-(trifluoromethyl)phenyl]sulfonyl]-tetrahydro-pyran]",> 95
11,"CC1(S(=O)(=O)c2cccc(C(F)(F)F)n2)CCOC(c2ccc(S(C)(=O)=O)c(F)c2)C1 (centres unmarked) [SC-245, 2-[[2-(3-Fluoro-4-methylsulfonyl-phenyl)-4-methyl-tetrahydro-pyran-4-yl]sulfonyl]-6-(trifluoromethyl)-pyridine]",40 to 75
12,"CC1(S(=O)(=O)c2cccc(C(F)(F)F)c2)CCOC(c2cc(S(C)(=O)=O)ccc2Cl)C1 (centres unmarked) [SC-247, 2-(2-Chloro-5-methylsulfonyl-phenyl)-4-methyl-4-[[3-(trifluoromethyl)phenyl]sulfonyl]-tetrahydro-pyran]",> 95
13,"CC1(S(=O)(=O)c2cccc(C(F)(F)F)c2)CCOC(c2ccc(C(F)(F)F)c(S(C)(=O)=O)c2)C1 (centres unmarked) [SC-249, 4-Methyl-2-[3-methylsulfonyl-4-(trifluoromethyl)-phenyl]-4-[[3-(trifluoromethyl)phenyl]sulfonyl]-tetrahydro-pyran]",> 95
14,"CC1(S(=O)(=O)c2cccc(C(F)(F)F)c2)CCOC(c2ccc(C#N)cc2S(C)(=O)=O)C1 (centres unmarked) [SC-251, 3-Methylsulfonyl-4-[4-methyl-4-[[3-(trifluoromethyl)phenyl]sulfonyl]-tetrahydro-pyran-2-yl]-benzonitrile]",> 95
15,"Cc1cc(S(C)(=O)=O)ccc1C1CC(C)(S(=O)(=O)c2cccc(C(F)(F)F)c2)CCO1 (centres unmarked) [SC-253, 4-Methyl-2-(2-methyl-4-methylsulfonyl-phenyl)-4-[[3-(trifluoromethyl)phenyl]sulfonyl]-tetrahydro-pyran]",75 to 95
16,"CC1(S(=O)(=O)c2cccc(C(F)(F)F)c2)CCOC(c2ccc(S(C)(=O)=O)cc2C(F)(F)F)C1 (centres unmarked) [SC-255, 4-Methyl-2-[4-methylsulfonyl-2-(trifluoromethyl)-phenyl]-4-[[3-(trifluoromethyl)phenyl]sulfonyl]-tetrahydro-pyran]",> 95
17,"CC1(S(=O)(=O)c2cccc(C(F)(F)F)c2)CCOC(c2cc(C#N)cc(S(C)(=O)=O)c2)C1 (centres unmarked) [SC-257, 3-Methylsulfonyl-5-[4-methyl-4-[[3-(trifluoromethyl)phenyl]sulfonyl]-tetrahydro-pyran-2-yl]-benzonitrile]",75 to 95
18,"CC1(S(=O)(=O)c2cccc(C(F)(F)F)c2)CCOC(c2ccc3c(c2)OC(F)(F)O3)C1 (centres unmarked) [SC-259, 2,2-Difluoro-5-[4-methyl-4-[[3-(trifluoromethyl)phenyl]sulfonyl]-tetrahydro-pyran-2-yl]-1,3-benzodioxole]",> 95
19,"CC1(S(=O)(=O)c2cccc(C(F)(F)F)c2)CCOC(c2ccc(C#N)c(S(C)(=O)=O)c2)C1 (centres unmarked) [SC-261, 2-Methylsulfonyl-4-[4-methyl-4-[[3-(trifluoromethyl)phenyl]sulfonyl]-tetrahydro-pyran-2-yl]-benzonitrile]",> 95
20,"CC1(S(=O)(=O)c2cccc(C(F)(F)F)c2)CCOC(c2ccc3c(c2)CCO3)C1 (centres unmarked) [SC-263, 5-[4-Methyl-4-[[3-(trifluoromethyl)phenyl]sulfonyl]-tetrahydro-pyran-2-yl]-2,3-dihydro-benzofuran]",> 95
21,"CC1(S(=O)(=O)c2cccc(OC(F)(F)F)c2)CCOC(c2ccc(S(C)(=O)=O)c(F)c2)C1 (centres unmarked) [SC-265, 2-(3-Fluoro-4-methylsulfonyl-phenyl)-4-methyl-4-[[3-(trifluoromethyloxy)-phenyl]sulfonyl]-tetrahydro-pyran]",75 to 95
22,"CC1(S(=O)(=O)c2cccc(C(F)(F)F)c2)CCOC(c2ccc(S(C)(=O)=O)c(C#N)c2)C1 (centres unmarked) [SC-267, 2-Methylsulfonyl-5-[4-methyl-4-[[3-(trifluoromethyl)phenyl]sulfonyl]-tetrahydro-pyran-2-yl]-benzonitrile]",> 95
